Earlier results on one substance are cited in US20030077264A1, “Antimicrobial blood treatment using allicin and related compounds” (priority 2001, published 2003).

In one series the test system is Helicobacter pylori. The settings on record: in medium.
The conditions of series [1]: buffer.

As for “thio-2-propene-1-sulfinic acid S-allyl ester [Allicin]”, in the series on Helicobacter pylori, the minimum inhibitory concentration is 4.0 µg/mL. For the same substance, in series [1], the half-life was 30 to 40 days.

Broadly, the half-life is the time needed for the level to fall by half in the phase considered.
